Data as given in patent US6890517B2, “Inhalable formulation of a solution containing a tiotropium salt” (Boehringer Ingelheim Pharma KG, priority 2000, dated 2005).

Assay: stability of budesonide dissolved in water/ethanol at low pH
Assay type: physicochemical
Conditions: pH of 3.5; dissolved in a mixture of water and ethanol
Procedure: In the case of steroids, these are preferably used in suspended form, especially fluticasone. This is particularly true if the solvent used is only water without ethanol. If ethanol is added, the steroid may also be formulated as a solution.

Q: Which stability in solution does the source give for `CCCC1O[C@@H]2C[C@H]3[C@@H]4CCC5=CC(=O)C=C[C@]5(C)[C@H]4[C@@H](O)C[C@]3(C)[C@]2(C(=O)CO)O1` (stereo partly shown) [budesonide] here?
A: sufficiently stable
